Patent publication US9493411B2 (AbbVie Inc., priority 2013, dated 2016)
Where two headings read alike, the source gives them in different places.

Tests used:
BRD4 (BDI_K57-E168) = molecular target: T1, BRD4 (BDI_K57-E168) (Homo sapiens, UniProt O60885); test: TR-FRET bromodomain binding assay, BRD4 first bromodomain; settings: His-tagged BD1, Alexa647-labeled probe 100 nM; Ki calculated from IC50
T1 construct: BD1: amino acids K57-E168; made in house
Procedure, shortened: (§1)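 Affinity for each isolated His-tagged domain was measured as competition with a fluorescent Alexa647 BET-inhibitor probe in a TR-FRET format at pH 6.0, 1 h room temperature incubation. Ki values were calculated from fitted IC50s, probe Kd and probe level (100 nM BDI, 30 nM BDII).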

BRD4 (BDII_E352-M457) = molecular target: T2, BRD4 (BDII_E352-M457) (Homo sapiens, UniProt O60885); test: TR-FRET bromodomain binding assay, BRD4 second bromodomain; settings: His-tagged BD2, Alexa647-labeled probe 30 nM; Ki calculated from IC50
T2 construct: made in house
Procedure, shortened: as §1

[1] = tested on: breast cancer cell line MX-1; test: MX-1 cell line proliferation assay; format: cell-based; settings: MX-1 cells, 3-day proliferation assay, Cell Titer Glo, read-out: Cellular proliferation: EC50
Procedure: The impact of compounds of the Examples on cancer cell proliferation was determined using the breast cancer cell line MX-1 (ATCC) in a 3-day proliferation assay and the data are reported in Table 1. MX-1 cells were maintained in RPMI 1640 medium (Sigma) supplemented with 10% FBS at 37° C. and an atmosphere of 5% CO2. For compound testing, MX-1 cells were plated in 96-well black bottom plates at a density of 5000 cells/well in 90 μL of culture media and incubated at 37° overnight to allow cell adhesion and spreading. Compound dilution series were prepared in DMSO via a 3-fold serial dilution from 3 mM to 0.1 μM. The DMSO dilution series were then diluted 1:100 in phosphate buffered saline, and 10 μL of the resulted solution were added to the appropriate wells of the MX-1 cell plate. The final compound concentrations in the wells were 3, 1, 0.3, 0.1, 0.03, 0.01, 0.003, 0.001, 0.0003 and 0.0001 μM.
Luminescence readings from the Cell Titer Glo assay were normalized to the DMSO treated cells and analyzed using the GraphPad Prism software with sigmoidal curve fitting to obtain EC50s. The minimum significant ratio (MSR) was determined to evaluate assay reproducibility (Eastwood et al., (2006) J Biomol Screen, 11: 253-261).

Ki (BRD4 (BDI_K57-E168)) [nM]	Ki (BRD4 (BDII_E352-M457)) [nM]	EC50 ([1]; Homo sapiens, MX1, 72 h) [nM]	EC50 [1] [nM]	Structure (SMILES)
4500	2980	13400		Cc1[nH]c(-c2ccccc2NC(=O)Cc2ccccc2)cc1C(N)=O [Example 76, 2-methyl-5-{2-[(phenylacetyl)amino]phenyl}-1H-pyrrole-3-carboxamide]
151	2590	1130		Cc1[nH]c(-c2ccccc2NC2CCSCC2)cc1C(N)=O [Example 68, 2-methyl-5-[2-(tetrahydro-2H-thiopyran-4-ylamino)phenyl]-1H-pyrrole-3-carboxamide]
180	192	1600		Cc1[nH]c(-c2ccccc2Oc2cccc3cnccc23)cc1C(N)=O [Example 125, 5-[2-(isoquinolin-5-yloxy)phenyl]-2-methyl-1H-pyrrole-3-carboxamide]
123	1600	2420		Cc1[nH]c(-c2ccccc2Oc2ccc(F)cc2)cc1C(N)=O [Example 141, 5-[2-(4-fluorophenoxy)phenyl]-2-methyl-1H-pyrrole-3-carboxamide]
224	6220	9580		Cc1[nH]c(-c2ccccc2NC[C@H]2CC[C@@H](N)CC2)cc1C(N)=O [Example 48, 5-(2-{[(cis-4-aminocyclohexyl)methyl]amino}phenyl)-2-methyl-1H-pyrrole-3-carboxamide]
471	1220	1770		Cc1[nH]c(-c2ccccc2Oc2ccc3[nH]ccc3c2)cc1C(N)=O [Example 130, 5-[2-(1H-indol-5-yloxy)phenyl]-2-methyl-1H-pyrrole-3-carboxamide]
131	1830		2360	Cc1[nH]c(-c2ccccc2NCC2CCOC2)cc1C(N)=O (single isomer, unassigned) [Example 19]
1410	1870	15300		Cc1[nH]c(-c2ccc(-c3ccc(CN4CCN(C)CC4)cc3)cc2)cc1C(N)=O [Example 97, 2-methyl-5-{4′-[(4-methylpiperazin-1-yl)methyl]biphenyl-4-yl}-1H-pyrrole-3-carboxamide]
493	1170	> 10000		Cc1cccc(Oc2ccccc2-c2cc(C(N)=O)c(C)[nH]2)c1 [Example 134, 2-methyl-5-[2-(3-methylphenoxy)phenyl]-1H-pyrrole-3-carboxamide]
434	4290	> 3000		Cc1[nH]c(-c2ccccc2NC2CCOCC2)cc1C(N)=O [Example 70, 2-methyl-5-[2-(tetrahydro-2H-pyran-4-ylamino)phenyl]-1H-pyrrole-3-carboxamide]
27.3	318	400		Cc1[nH]c(-c2ccccc2Oc2cccc3ncccc23)cc1C(N)=O [Example 128, 2-methyl-5-[2-(quinolin-5-yloxy)phenyl]-1H-pyrrole-3-carboxamide]
313	5600	> 10000		Cc1[nH]c(-c2ccccc2NC[C@H]2CC[C@H](N)CC2)cc1C(N)=O [Example 49, 5-(2-{[(trans-4-aminocyclohexyl)methyl]amino}phenyl)-2-methyl-1H-pyrrole-3-carboxamide]
209	722	465		Cc1[nH]c(-c2ccccc2NCC2CCCC2)cc1C(N)=O [Example 14, 5-{2-[(cyclopentylmethyl)amino]phenyl}-2-methyl-1H-pyrrole-3-carboxamide]
310	576	1830		COC(=O)CCc1ccccc1Oc1ccccc1-c1cc(C(N)=O)c(C)[nH]1 [Example 133, methyl 3-{2-[2-(4-carbamoyl-5-methyl-1H-pyrrol-2-yl)phenoxy]phenyl}propanoate]
728	1190	8560		Cc1[nH]c(-c2ccccc2Oc2ccc3ccccc3c2)cc1C(N)=O [Example 139, 2-methyl-5-[2-(naphthalen-2-yloxy)phenyl]-1H-pyrrole-3-carboxamide]
585	3880	190		Cc1[nH]c(-c2ccccc2NCc2ccc(O)cc2)cc1C(N)=O [Example 54, 5-{2-[(4-hydroxybenzyl)amino]phenyl}-2-methyl-1H-pyrrole-3-carboxamide]

Ki (BRD4 (BDI_K57-E168)) [nM]	Ki (BRD4 (BDII_E352-M457)) [nM]	EC50 ([1]; Homo sapiens, MX1, 72 h) [nM]	EC50 [1] [nM]	Structure (SMILES)
498	7830	> 10000		Cc1[nH]c(-c2ccccc2NCCC2CCNCC2)cc1C(N)=O [Example 47, 2-methyl-5-(2-{[2-(piperidin-4-yl)ethyl]amino}phenyl)-1H-pyrrole-3-carboxamide]
2500	5180	6300		Cc1ccc(-c2cc(C(N)=O)c(C)[nH]2)c(C)c1 [Example 90, 5-(2,4-dimethylphenyl)-2-methyl-1H-pyrrole-3-carboxamide]
197	1240	520		Cc1[nH]c(-c2ccccc2NC2CCCCC2)cc1C(N)=O [Example 62, 5-[2-(cyclohexylamino)phenyl]-2-methyl-1H-pyrrole-3-carboxamide]
357	775	2130		Cc1[nH]c(-c2ccccc2Oc2cccc(Cl)c2)cc1C(N)=O [Example 142, 5-[2-(3-chlorophenoxy)phenyl]-2-methyl-1H-pyrrole-3-carboxamide]
218	1020	4880		COc1ccc(Oc2ccccc2-c2cc(C(N)=O)c(C)[nH]2)cc1 [Example 137, 5-[2-(4-methoxyphenoxy)phenyl]-2-methyl-1H-pyrrole-3-carboxamide]
452	810	> 3000		Cc1[nH]c(-c2ccccc2NC2CCc3ccccc32)cc1C(N)=O (stereo not drawn) [Example 67, 5-[2-(2,3-dihydro-1H-inden-1-ylamino)phenyl]-2-methyl-1H-pyrrole-3-carboxamide]
83.4	1140	1300		Cc1[nH]c(-c2ccccc2Oc2cccnc2)cc1C(N)=O [Example 126, 2-methyl-5-[2-(pyridin-3-yloxy)phenyl]-1H-pyrrole-3-carboxamide]
1190	3920	> 10000		Cc1[nH]c(-c2ccccc2-n2cnc3ccc(O)cc32)cc1C(N)=O [Example 145, 5-[2-(6-hydroxy-1H-benzimidazol-1-yl)phenyl]-2-methyl-1H-pyrrole-3-carboxamide]
4020	1980	8600		COC/C=C/c1ccc(-c2cc(C(N)=O)c(C)[nH]2)cc1 [Example 107, 5-{4-[(1E)-3-methoxyprop-1-en-1-yl]phenyl}-2-methyl-1H-pyrrole-3-carboxamide]
426	16300	4950		Cc1[nH]c(-c2ccccc2NC[C@H]2CC[C@H](NC(=O)OC(C)(C)C)CC2)cc1C(N)=O [Example 46, tert-butyl [trans-4-({[2-(4-carbamoyl-5-methyl-1H-pyrrol-2-yl)phenyl]amino}methyl)cyclohexyl]carbamate]
78.1	416	167		Cc1[nH]c(-c2ccccc2NC2C3CC4CC(C3)CC2C4)cc1C(N)=O (stereo not drawn) [Example 72, 2-methyl-5-{2-[tricyclo[3.3.1.1^3,7]dec-2-ylamino]phenyl}-1H-pyrrole-3-carboxamide]
384	1480	1300		CCCCNc1ccccc1-c1cc(C(N)=O)c(C)[nH]1 [Example 27, 5-[2-(butylamino)phenyl]-2-methyl-1H-pyrrole-3-carboxamide]
37.6	225	433		Cc1[nH]c(-c2ccccc2NC2CCCCC2F)cc1C(N)=O (stereo not drawn) [Example 75, 5-{2-[(2-fluorocyclohexyl)amino]phenyl}-2-methyl-1H-pyrrole-3-carboxamide]
884	3880	2320		COc1cc(-c2cc(C(N)=O)c(C)[nH]2)cc(OC)c1OC [Example 149, 2-methyl-5-(3,4,5-trimethoxyphenyl)-1H-pyrrole-3-carboxamide]
391	725	1350		Cc1[nH]c(-c2ccccc2Oc2ccccc2F)cc1C(N)=O [Example 117, 5-[2-(2-fluorophenoxy)phenyl]-2-methyl-1H-pyrrole-3-carboxamide]
233	1040	2000		Cc1[nH]c(-c2ccccc2Oc2cccc(C#N)c2)cc1C(N)=O [Example 127, 5-[2-(3-cyanophenoxy)phenyl]-2-methyl-1H-pyrrole-3-carboxamide]
